Assay results as given in article PMC10804372, “Degradation by Design: New Cyclin K Degraders from Old CDK Inhibitors” (ACS Chemical Biology, 2024).

Tests used:
Cyclin K [1] = assay: Cyclin K levels by Western blot after single-concentration treatment; assay type: cell-based, human; details: HEK293T cells, 1 μM for 2 h, quantified from Western blots, mean ± SD, three independent experiments
Procedure, shortened: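 Cyclin K quantified by Western blot of HEK293T lysates after a single compound concentration, with ImageJ densitometry normalized to GAPDH. Cells grown in DMEM/10% FBS at 37 °C, 5% CO2.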

Cyclin K [2] = assay: Cyclin K degradation concentration-response (DC50, DMax) by Western blot; assay type: cell-based, human; details: HEK293T, Western blot quantification, 3 biological repeats
Procedure, shortened: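 HEK293T cells treated across a concentration range; lysates immunoblotted for Cyclin K with GAPDH as loading control, ECL detection. Band intensities quantified, Cyclin K normalized to GAPDH, and DC50 derived by 4-parameter nonlinear regression of concentration–response curves.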

CDK12 = target: T1, CDK12 (Homo sapiens, UniProt Q9NYV4); assay: KINOMEscan binding assay (Eurofins DiscoverX); details: KINOMEscan
T1 construct: purchased Eurofins DiscoverX (KINOMEscan service)
T1 sequence (Q9NYV4 whole entry): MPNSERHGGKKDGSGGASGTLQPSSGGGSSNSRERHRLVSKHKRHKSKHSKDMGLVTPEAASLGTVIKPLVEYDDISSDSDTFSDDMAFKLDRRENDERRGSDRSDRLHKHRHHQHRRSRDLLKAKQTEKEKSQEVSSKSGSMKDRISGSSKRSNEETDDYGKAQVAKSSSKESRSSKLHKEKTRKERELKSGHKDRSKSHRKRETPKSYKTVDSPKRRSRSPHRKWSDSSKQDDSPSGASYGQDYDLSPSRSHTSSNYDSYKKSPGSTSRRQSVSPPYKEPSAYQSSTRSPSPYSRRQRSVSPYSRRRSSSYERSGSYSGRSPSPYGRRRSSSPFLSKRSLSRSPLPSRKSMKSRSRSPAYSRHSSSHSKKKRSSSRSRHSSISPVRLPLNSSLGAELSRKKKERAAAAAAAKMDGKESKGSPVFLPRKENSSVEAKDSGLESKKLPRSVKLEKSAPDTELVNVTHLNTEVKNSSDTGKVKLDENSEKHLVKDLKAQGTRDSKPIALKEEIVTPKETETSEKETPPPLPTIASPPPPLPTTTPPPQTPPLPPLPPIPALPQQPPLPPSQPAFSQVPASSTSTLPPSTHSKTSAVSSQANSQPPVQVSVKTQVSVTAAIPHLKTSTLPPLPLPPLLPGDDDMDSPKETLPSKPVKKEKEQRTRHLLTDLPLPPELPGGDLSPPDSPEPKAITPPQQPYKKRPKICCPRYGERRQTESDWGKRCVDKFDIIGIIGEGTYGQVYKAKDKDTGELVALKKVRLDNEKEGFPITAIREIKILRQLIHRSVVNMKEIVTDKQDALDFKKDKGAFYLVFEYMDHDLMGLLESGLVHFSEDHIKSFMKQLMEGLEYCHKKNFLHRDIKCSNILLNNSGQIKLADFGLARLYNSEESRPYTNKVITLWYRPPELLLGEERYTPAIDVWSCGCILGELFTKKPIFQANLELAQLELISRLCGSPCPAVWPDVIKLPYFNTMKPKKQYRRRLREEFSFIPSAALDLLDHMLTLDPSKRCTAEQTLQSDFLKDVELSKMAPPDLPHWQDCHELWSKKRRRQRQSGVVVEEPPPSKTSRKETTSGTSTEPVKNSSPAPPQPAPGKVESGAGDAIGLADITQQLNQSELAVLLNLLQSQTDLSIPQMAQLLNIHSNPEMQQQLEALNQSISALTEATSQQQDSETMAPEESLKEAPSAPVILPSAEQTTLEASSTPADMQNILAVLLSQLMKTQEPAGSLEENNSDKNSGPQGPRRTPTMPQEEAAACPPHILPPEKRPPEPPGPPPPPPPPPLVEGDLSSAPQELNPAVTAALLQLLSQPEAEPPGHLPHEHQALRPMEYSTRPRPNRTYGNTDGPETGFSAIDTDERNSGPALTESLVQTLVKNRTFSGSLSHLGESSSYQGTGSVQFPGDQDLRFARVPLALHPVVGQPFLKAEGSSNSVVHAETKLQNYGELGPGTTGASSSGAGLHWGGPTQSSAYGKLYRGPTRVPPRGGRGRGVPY

HEK293T cells = assay: Proteome-wide quantitation by mass spectrometry (TMT); assay type: cell-based, human; details: for log2FC compound 41: 1uM, 2h

O=C(NCc1ccc(C2=CCOCC2)cc1)c1n[nH]cc1NC(=O)c1c(Cl)cccc1Cl [compound 41]
Remaining Cyclin K (%) (Cyclin K [1]): 3 ± 1% | DMax (%) (Cyclin K [2]): >95% | DC50 (Cyclin K [2]; read-out: CycK DC50): 141 nM | Kd (CDK12): 3800 nM | log2FC compound 41 (HEK293T cells): 1.1108 | number of proteins showing at least a −0.5 log2 fold change (HEK293T cells; HEK293T, 1 μM, 2 h treatment): 33 proteins | log2FC compound 41 (HEK293T cells; protein AKR7A2 (Aflatoxin B1 aldehyde reductase member 2, O43488)): -0.7339 | log2FC compound 41 (HEK293T cells; protein ALG10 (Dol-P-Glc:Glc(2)Man(9)GlcNAc(2)-PP-Dol alpha-1,2-glucosyltransferase, Q5BKT4)): 0.9798 | log2FC compound 41 (HEK293T cells; protein ALKBH2 (DNA oxidative demethylase ALKBH2, Q6NS38)): 0.728 | log2FC compound 41 (HEK293T cells; protein ARF4 (ADP-ribosylation factor 4, P18085)): 0.7714 | log2FC compound 41 (HEK293T cells; protein ATP6AP1 (V-type proton ATPase subunit S1, Q15904)): 0.6251 | log2FC compound 41 (HEK293T cells; protein B3GLCT (Beta-1,3-glucosyltransferase, Q6Y288)): 0.6029 | log2FC compound 41 (HEK293T cells; protein BTF3L4 (Transcription factor BTF3 homolog 4, Q96K17)): 0.5924 | log2FC compound 41 (HEK293T cells; protein C1orf167 (Uncharacterized protein C1orf167, Q5SNV9)): 1.3705 | log2FC compound 41 (HEK293T cells; protein CCNK (Cyclin-K, O75909)): -1.4213 | log2FC compound 41 (HEK293T cells; protein CD9 (CD9 antigen, P21926)): 0.6995 | log2FC compound 41 (HEK293T cells; protein CD59 (CD59 glycoprotein, P13987)): 1.3635 | log2FC compound 41 (HEK293T cells; protein CD63 (CD63 antigen, P08962)): 1.3469 | log2FC compound 41 (HEK293T cells; protein CD151 (CD151 antigen, P48509)): 0.7942 | log2FC compound 41 (HEK293T cells; protein CDKL5 (Cyclin-dependent kinase-like 5, O76039)): 1.2994 | log2FC compound 41 (HEK293T cells; protein CENPW (Centromere protein W, Q5EE01)): 0.6212 | log2FC compound 41 (HEK293T cells; protein CERS1 (Ceramide synthase 1, P27544)): 0.5956 | log2FC compound 41 (HEK293T cells; protein CHCHD1 (Coiled-coil-helix-coiled-coil-helix domain-containing protein 1, Q96BP2)): -0.843 | log2FC compound 41 (HEK293T cells; protein CHCHD2 (Coiled-coil-helix-coiled-coil-helix domain-containing protein 2, Q9Y6H1)): -0.961 | log2FC compound 41 (HEK293T cells; protein CNOT8 (CCR4-NOT transcription complex subunit 8, Q9UFF9)): 0.5912 | log2FC compound 41 (HEK293T cells; protein COA7 (Cytochrome c oxidase assembly factor 7, Q96BR5)): -0.7413 | log2FC compound 41 (HEK293T cells; protein COPRS (Coordinator of PRMT5 and differentiation stimulator, Q9NQ92)): 0.7957 | log2FC compound 41 (HEK293T cells; protein COX6B1 (Cytochrome c oxidase subunit 6B1, P14854)): 0.7689 | log2FC compound 41 (HEK293T cells; protein COX7A2 (Cytochrome c oxidase subunit 7A2, mitochondrial, P14406)): -1.7055 | log2FC compound 41 (HEK293T cells; protein CSNK2B (Casein kinase II subunit beta, P67870)): 0.62 | log2FC compound 41 (HEK293T cells; protein CTSV (Cathepsin L2, O60911)): 0.7835 | log2FC compound 41 (HEK293T cells; protein DCDC1 (Doublecortin domain-containing protein 1, M0R2J8)): 1.8264 | log2FC compound 41 (HEK293T cells; protein DHX58 (Probable ATP-dependent RNA helicase DHX58, Q96C10)): 1.0451 | log2FC compound 41 (HEK293T cells; protein DNAJC5 (DnaJ homolog subfamily C member 5, Q9H3Z4)): 0.994 | log2FC compound 41 (HEK293T cells; protein DNPEP (Aspartyl aminopeptidase, Q9ULA0)): 0.6304 | log2FC compound 41 (HEK293T cells; protein DYNLL1 (Dynein light chain 1, cytoplasmic, P63167)): -0.6985 | log2FC compound 41 (HEK293T cells; protein ECI1 (Enoyl-CoA delta isomerase 1, mitochondrial, P42126)): 0.8277 | log2FC compound 41 (HEK293T cells; protein EI24 (Etoposide-induced protein 2.4 homolog, O14681)): 0.8122 | log2FC compound 41 (HEK293T cells; protein EIF5A2 (Eukaryotic translation initiation factor 5A-2, Q9GZV4)): 1.4183 | log2FC compound 41 (HEK293T cells; protein ELP5 (Elongator complex protein 5, Q8TE02)): 0.6971 | log2FC compound 41 (HEK293T cells; protein ERGIC3 (Endoplasmic reticulum-Golgi intermediate compartment protein 3, Q9Y282)): -0.6608 | log2FC compound 41 (HEK293T cells; protein FAM219A (Protein FAM219A, Q8IW50)): 0.6921 | log2FC compound 41 (HEK293T cells; protein FAM234A (Protein FAM234A, Q9H0X4)): 0.9598 | log2FC compound 41 (HEK293T cells; protein GGH (Gamma-glutamyl hydrolase, Q92820)): 0.639 | log2FC compound 41 (HEK293T cells; protein GNA15 (Guanine nucleotide-binding protein subunit alpha-15, P30679)): 1.1022 | log2FC compound 41 (HEK293T cells; protein GYG2 (Glycogenin-2, O15488)): 0.8256 | log2FC compound 41 (HEK293T cells; protein H2AC6 (Histone H2A type 1-C, Q93077)): -2.3143 | log2FC compound 41 (HEK293T cells; protein H2AC14 (Histone H2A type 1-J, Q99878)): -2.3989 | log2FC compound 41 (HEK293T cells; protein HMGN2 (Non-histone chromosomal protein HMG-17, P05204)): -0.8432 | log2FC compound 41 (HEK293T cells; protein HNRNPA2B1 (Heterogeneous nuclear ribonucleoproteins A2/B1, P22626)): -0.5885 | log2FC compound 41 (HEK293T cells; protein HSPB11 (Intraflagellar transport protein 25 homolog, Q9Y547)): 0.7236 | log2FC compound 41 (HEK293T cells; protein KCTD1 (BTB/POZ domain-containing protein KCTD1, Q719H9)): 0.9367 | log2FC compound 41 (HEK293T cells; protein KIAA0930 (Uncharacterized protein KIAA0930, Q6ICG6)): 0.6862 | log2FC compound 41 (HEK293T cells; protein KIAA1549 (UPF0606 protein KIAA1549, Q9HCM3)): 0.7226 | log2FC compound 41 (HEK293T cells; protein LIPA (Lysosomal acid lipase/cholesteryl ester hydrolase, P38571)): 0.766 | log2FC compound 41 (HEK293T cells; protein LIPT2 (Putative lipoyltransferase 2, mitochondrial, A6NK58)): -0.7183 | log2FC compound 41 (HEK293T cells; protein LPCAT3 (Lysophospholipid acyltransferase 5, Q6P1A2)): 1.5824 | log2FC compound 41 (HEK293T cells; protein LPIN2 (Phosphatidate phosphatase LPIN2, Q92539)): 0.7762 | log2FC compound 41 (HEK293T cells; protein LSM1 (U6 snRNA-associated Sm-like protein LSm1, O15116)): 1.1318 | log2FC compound 41 (HEK293T cells; protein MEIS1 (Homeobox protein Meis1, O00470)): -0.7006 | log2FC compound 41 (HEK293T cells; protein MGARP (Protein MGARP, Q8TDB4)): 0.8294 | log2FC compound 41 (HEK293T cells; protein MKRN1 (E3 ubiquitin-protein ligase makorin-1, Q9UHC7)): 0.6085 | log2FC compound 41 (HEK293T cells; protein MRPL24 (39S ribosomal protein L24, mitochondrial, Q96A35)): -0.8105 | log2FC compound 41 (HEK293T cells; protein MSMO1 (Methylsterol monooxygenase 1, Q15800)): 0.6949 | log2FC compound 41 (HEK293T cells; protein MT-ND4 (NADH-ubiquinone oxidoreductase chain 4, P03905)): 0.7038 | log2FC compound 41 (HEK293T cells; protein NCBP2AS2 (Protein NCBP2AS2, Q69YL0)): -0.5975 | log2FC compound 41 (HEK293T cells; protein NIPA2 (Magnesium transporter NIPA2, Q8N8Q9)): 0.8891 | log2FC compound 41 (HEK293T cells; protein NSMCE4A (Non-structural maintenance of chromosomes element 4 homolog A, Q9NXX6)): 0.6459 | log2FC compound 41 (HEK293T cells; protein NXT2 (NTF2-related export protein 2, Q9NPJ8)): 1.4453 | log2FC compound 41 (HEK293T cells; protein ORC4 (Origin recognition complex subunit 4, O43929)): 0.6334 | log2FC compound 41 (HEK293T cells; protein OSTC (Oligosaccharyltransferase complex subunit OSTC, Q9NRP0)): 0.6129 | log2FC compound 41 (HEK293T cells; protein POP5 (Ribonuclease P/MRP protein subunit POP5, Q969H6)): 0.6256 | log2FC compound 41 (HEK293T cells; protein PPP1CB (Serine/threonine-protein phosphatase PP1-beta catalytic subunit, P62140)): -0.8644 | log2FC compound 41 (HEK293T cells; protein PRPF38A (Pre-mRNA-splicing factor 38A, Q8NAV1)): 0.6341 | log2FC compound 41 (HEK293T cells; protein RBX1 (E3 ubiquitin-protein ligase RBX1, P62877)): 0.6251 | log2FC compound 41 (HEK293T cells; protein RER1 (Protein RER1, O15258)): 0.5922 | log2FC compound 41 (HEK293T cells; protein RPS29 (40S ribosomal protein S29, P62273)): -1.1057 | log2FC compound 41 (HEK293T cells; protein SDHAF4 (Succinate dehydrogenase assembly factor 4, mitochondrial, Q5VUM1)): 0.8419 | log2FC compound 41 (HEK293T cells; protein SEC11C (Signal peptidase complex catalytic subunit SEC11C, Q9BY50)): -0.5851 | log2FC compound 41 (HEK293T cells; protein SERINC3 (Serine incorporator 3, Q13530)): 0.6778 | log2FC compound 41 (HEK293T cells; protein SIAE (Sialate O-acetylesterase, Q9HAT2)): 0.753 | log2FC compound 41 (HEK293T cells; protein SLC25A17 (Peroxisomal membrane protein PMP34, O43808)): 1.1015 | log2FC compound 41 (HEK293T cells; protein SLC44A2 (Choline transporter-like protein 2, Q8IWA5)): 1.0845 | log2FC compound 41 (HEK293T cells; protein SPCS1 (Signal peptidase complex subunit 1, Q9Y6A9)): 0.6654 | log2FC compound 41 (HEK293T cells; protein STEAP2 (Metalloreductase STEAP2, Q8NFT2)): 0.6125 | log2FC compound 41 (HEK293T cells; protein SURF4 (Surfeit locus protein 4, O15260)): 0.8751 | log2FC compound 41 (HEK293T cells; protein TECR (Very-long-chain enoyl-CoA reductase, Q9NZ01)): 0.5914 | log2FC compound 41 (HEK293T cells; protein TMCC3 (Transmembrane and coiled-coil domain protein 3, Q9ULS5)): 0.6529 | log2FC compound 41 (HEK293T cells; protein TMED5 (Transmembrane emp24 domain-containing protein 5, Q9Y3A6)): 0.6722 | log2FC compound 41 (HEK293T cells; protein TMEM41A (Transmembrane protein 41A, Q96HV5)): 0.881 | log2FC compound 41 (HEK293T cells; protein TMSB4X (Thymosin beta-4, P62328)): -1.1542 | log2FC compound 41 (HEK293T cells; protein TVP23C (Golgi apparatus membrane protein TVP23 homolog C, Q96ET8)): 0.698 | log2FC compound 41 (HEK293T cells; protein UBE2R2 (Ubiquitin-conjugating enzyme E2 R2, Q712K3)): -0.7129 | log2FC compound 41 (HEK293T cells; protein WHAMM (WASP homolog-associated protein with actin, membranes and microtubules, Q8TF30)): -0.8329 | log2FC compound 41 (HEK293T cells; protein XPOT (Exportin-T, O43592)): 0.6641 | log2FC compound 41 (HEK293T cells; protein ZBTB17 (Zinc finger and BTB domain-containing protein 17, Q13105)): 1.0947
